Source: paper PMC7822874, “Chemoprotective antimalarials identified through quantitative high-throughput screening of Plasmodium blood and liver stage parasites” (Scientific Reports, 2021)
Values joined by “and” are separate entries in the source; they are usually repeats but may differ in a detail not shown here. Equal entries are not always repeated.

Key:
in vitro = settings: human, n = 1
[1] = system: Plasmodium falciparum Dd2 asexual blood stage parasites; assay: microbe, parasite or virus in culture; parameters: species or system Plasmodium falciparum Dd2 in human erythrocytes; single determination (one 11-point concentration-response curve); settings: Plasmodium falciparum, DD2, Erythrocyte, 72 h; read-out: AC50
[2] = system: P. falciparum Dd2 Cytb A122D; assay: SYBR Green ABS proliferation assay, NCGC00473217 selected clone F12; format: cell-based, Plasmodium falciparum; settings: Plasmodium falciparum, DD2, […]; averaged from three independent replicates; top concentration 29 µM; read-out: Average AC50 (Log[M]), NCGC00473217 clone F12 (Cytb A122D) (converted)
Summary of the method: (§1)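 Asexual blood-stage proliferation of cytochrome b-mutant Dd2 clones after 72 h compound exposure at 37 °C in low-oxygen gas, quantified as control-normalized SYBR Green-I fluorescence; differences tested by two-sided t-test.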

[3] = system: T1, Plasmodium falciparum Dd2-attB-ScDHODH (transgenic line expressing yeast DHODH), asexual blood stages; assay: organism not typed; parameters: replicate k of 3 (each line is one of three independent assays; the three lines of one compound and parasite line follow each other); settings: 72 h, n = 1
T1 construct: Dd2-attB-ScDHODH, the transgenic line that expresses yeast DHODH
Summary of the method: (§2)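 Three independent runs, compound subset only; parental vs ScDHODH line compared by two-sided Student's t-test.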

[4] = system: T2, Plasmodium falciparum Dd2-attB (parental line), asexual blood stages; assay: microbe, parasite or virus in culture; parameters: replicate k of 3 (each line is one of three independent assays; the three lines of one compound and parasite line follow each other); settings: 72 h; n = 1
T2 construct: Dd2-attB, the isogenic parental line
Summary of the method: as §2

[5] = system: P. falciparum Dd2 Cytb V259L; assay: SYBR Green ABS proliferation assay, NCGC00473217 selected clone F06; format: cell-based, Plasmodium falciparum; settings: Plasmodium falciparum, DD2, […]; averaged from three independent replicates; top concentration 29 µM; read-out: Average AC50 (Log[M]), NCGC00473217 clone F06 (Cytb V259L) (converted)
Summary of the method: as §1

[6] = system: P. falciparum Dd2 (clone B2) asexual blood stage parasites; assay: P. falciparum Dd2 asexual blood stage SYBR Green-I 72 h proliferation assay (qHTS); format: cell-based, Plasmodium falciparum; settings: Plasmodium falciparum, DD2, Dd2 parental; Hill fit, averaged from three independent replicates; top concentration 29 µM; read-out: Average AC50 (Log[M]), Dd2 (converted)
[7] = system: P. falciparum Dd2 Cytb G131S; assay: SYBR Green ABS proliferation assay, NCGC00374598 selected clone C11; format: cell-based, Plasmodium falciparum; settings: Plasmodium falciparum, DD2, […]; averaged from three independent replicates; top concentration 29 µM; read-out: Average AC50 (Log[M]), NCGC00374598 clone C11 (Cytb G131S) (converted)
Summary of the method: as §1

[8] = system: P. falciparum Dd2 Cytb F123L; assay: SYBR Green ABS proliferation assay, NCGC00473217 selected clone G08; format: cell-based, Plasmodium falciparum; settings: Plasmodium falciparum, DD2, […]; averaged from three independent replicates; top concentration 29 µM; read-out: Average AC50 (Log[M]), NCGC00473217 clone G08 (Cytb F123L) (converted)
Summary of the method: as §1

SMILES | CC50 at 48 h (in vitro; HepG2 cells) | other results
CC(=O)NC(c1ccccc1)c1cc(Cl)c2cccnc2c1O (stereo not drawn) [MLS001210949-01] | 12.2 µM | 
N=c1ccn(CC(=O)c2ccc(-c3ccccc3)cc2)cc1 [MLS000698051-01] | 24.3 µM | AC50 [1]: 0.944 µM
Cc1[nH]n(-c2ccccc2)c(=O)c1/C=N/Nc1nncc(-c2ccccc2)n1 [MLS000579075-01] | 13.7 µM | AC50 [1]: 4.22 µM
COc1cnc(-c2ccccn2)nc1Sc1ccccc1 [MLS000692209-01] | 24.3 µM | 
C=C1C(=O)OC2CC(C)C3C=CC(=O)C3(C)C(O)C12 (stereo not drawn) [MLS002701927-01] |  | CC50 at 48 h (in vitro; hepg2): 15.3 µM
CC(C)c1cccc(NC(=O)c2ccc(CN3C(=O)NC4(CCOCC4)C3=O)cc2)c1 [NCGC00454607-01] | 24.3 µM | 
O=S(=O)(c1ccc(Cl)cc1)N1CCN(Cc2ccc(O)c3ncccc23)CC1 [MLS000774708-01] | 10.9 µM | AC50 [1]: 13.3 µM
Fc1ccc(Nc2nc3nonc3nc2Nc2cccc(C(F)(F)F)c2)cc1 [NCGC00117664-01] | 4.32 µM | AC50 [1]: 1.68 µM
COC1=CC=CC(=CNNc2cc(N3CCOCC3)ncn2)C1=O [MLS001202693-01] | 12.2 µM | 
O=C(Nc1cc(C(F)(F)F)cc(C(F)(F)F)c1)Nc1cnn(-c2ccc([N+](=O)[O-])cc2)c1C(F)(F)F [MLS000851511-01] | 10.9 µM | AC50 [1]: 6.68 µM
CC1=CC(=CNNC(=O)c2n[nH]cc2Br)C(=O)C=C1 [MLS000555044-01] | 19.3 µM | 
CCNc1nc2c(c(=O)n(C)c(=O)n2C)n1Cc1ccc(F)cc1 [NCGC00142036-01] | 21.7 µM | 
COc1ccc2[nH]c(C[C@@H]3C[C@@H](C(C)C)[C@H](CNCc4ccccn4)C=C3C)nc2c1 [NCGC00391900-01] | 7.03 µM | AC50 [1]: 0.769 µM
O=C(Nc1nc(-c2ccccn2)cs1)c1ccc(F)c(S(=O)(=O)N2CCOCC2)c1 [MLS002162137-01] | 10.9 µM | AC50 [1]: 2.11 µM
Cc1cc(C)n(CCC(=O)N2CC(Oc3ccc(-c4nc(-c5ccccc5)no4)cc3)C2)n1 [NCGC00441169-01] | 10.9 µM | 
Cc1c(NN=C(C#N)C(=O)c2ccccc2)c(=O)n(-c2ccccc2)n1C [MLS000567622-01] | 12.2 µM | AC50 [1]: 6.68 µM
COc1cnc(-c2ccccn2)nc1N(C)c1ccccc1 [MLS001166302-01] | 13.7 µM | AC50 [1]: 5.96 µM
CN(C)CCNC(=O)c1nc2nc(-c3ccccc3)c(-c3cccc(F)c3)cc2n1C [NCGC00417874-01] | 31.4 µM | AC50 [1]: 19.3 µM
Oc1c(C(Nc2ccccn2)c2ccccc2F)ccc2cccnc12 (stereo not drawn) [NCGC00135751-01] | 27.3 µM | AC50 [1]: 9.44 µM
O=C(Cc1c[nH]c2ccccc12)N1CCc2c([nH]c(-c3ccc(F)cc3)nc2=O)C1 [NCGC00439989-01] | 0.00432 µM | 
Oc1ccccc1C(Nc1nccs1)c1ccc2cccnc2c1O (stereo not drawn) [MLS000759877-01] | 19.3 µM | 
CCCCC(=O)NC(c1cccs1)c1cc(Cl)c2cccnc2c1O (stereo not drawn) [MLS000714525-01] | 13.7 µM | 
C=C1C(=O)O[C@@H]2C[C@@H](C)[C@@H]3C=CC(=O)[C@@]3(C)[C@@H](OC(=O)CC(=O)O[C@H]3[C@@H]4C(=C)C(=O)O[C@@H]4C[C@@H](C)[C@@H]4C=CC(=O)[C@]43C)[C@H]12 [MLS000728515-01] |  | CC50 at 48 h (in vitro; hepg2): 10.9 µM
COc1ccc(Nc2nc(N3CCCCC3)c3ccccc3n2)cc1 [MLS000569818-01] | 30.6 µM | 
CC(C)c1cc(C(=O)NC2CCN(c3ncccc3C#N)CC2)n(C)n1 [NCGC00431169-01] | 19.3 µM | 
CCOC(=O)C1=C(c2ccccc2)N=C(N)NC1c1ccc(OCc2ccc(Cl)cc2)c(OC)c1 (stereo not drawn) [MLS000771452-01] | 34.3 µM | 

SMILES | CC50 at 48 h (in vitro; HepG2 cells) | other results
COc1cc(C(=O)N/N=C(/c2ccccc2)c2ccccn2)cc(OC)c1OC [MLS000390992-01] | 10.9 µM | 
Cc1cc(Cl)ccc1-c1ccc(CNC2CN(C(=O)OC(C)(C)C)C2)cc1 [NCGC00374248-01] | 34.3 µM | 
CCc1ccc(NC(=O)N2CC(C(=O)N(C)C)C3(CCOCC3)C2)cc1 (stereo not drawn) [NCGC00471776-01] | 0.00769 µM | 
N#Cc1c(Cl)nsc1NC(=O)c1ccccc1 [MLS000696348-01] | 13.7 µM | 
Cc1nn2c(NCc3ccccn3)cc(C(C)C)nc2c1-c1ccccc1 [MLS000762881-01] | 12.2 µM | 
CCn1c(C)nc2cc(-c3nc4n(n3)Cc3ccccc3-4)ccc21 [MLS000054270-01] | 12.2 µM | 
O=C(Cc1ccccc1F)N1CC(Oc2ccc(-c3noc(-c4cccnc4)n3)cc2)C1 [NCGC00458031-01] | 19.3 µM | 
Cc1cc(NCc2ccccn2)n2nc(C)c(-c3ccc(Cl)cc3)c2n1 [MLS000559839-01] | 9.68 µM | 
CC1=C[C@@H](CN2CCN(c3ccccn3)CC2)[C@H](C(C)C)C[C@H]1Cc1nnc(C)o1 [NCGC00392770-01] | 35.3 µM | 
CCCN1C(CC(C)C)=N[S+](=O)([O-])c2cc(NC(=O)c3ccc(C)o3)ccc21 [NCGC00510048-01] |  | AC50 [2]: 7.96e-06 M; Individual replicates / Log AC50 (M) [3]: -5.1486 Log AC50 (M); AC50 ([3]; read-out: Individual replicates / Log AC50 (converted)): 7.1 µM; Individual replicates / Log AC50 (M) [4]: -5.5486 Log AC50 (M) and -5.3486 Log AC50 (M) and -5.1986 Log AC50 (M); AC50 [5]: 7.38e-06 M; AC50 [6]: 9.66e-06 M; AC50 [7]: 7.38e-06 M; AC50 [8]: 6.58e-06 M
O=C(NCC1CC1)c1nc2c(o1)CCN(Cc1cccc(F)c1)CC2 [NCGC00413365-01] | 44.4 µM | 
O=C(c1ccc2[nH]ccc2c1)N1CCC2(CC1)NC(c1ccc(Br)cc1)=NO2 [NCGC00446987-01] | 24.3 µM | 
COCCN1Cc2ccc(NCC(C)C)nc2C(C)(C(=O)Nc2cccc(F)c2)C1 (stereo not drawn) [NCGC00414615-01] | 35.3 µM | 
CCCCC(=O)NC(c1ccc(Cl)cc1Cl)c1ccc2cccnc2c1O (stereo not drawn) [MLS001212967-01] | 21.7 µM | 
c1csc(-c2cn3ccc4ccccc4c3n2)c1 [MLS000711806-01] | 15.3 µM | 
CC(NNC(=O)C12CCC(C)(C(=O)O1)C2(C)C)=C1C=CC=CC1=O (stereo not drawn) [MLS000778293-01] | 12.2 µM | 
CCCOc1ccc(C(=O)Nc2ccc(-c3cc4ccccc4oc3=O)c(C)c2)cc1 [NCGC00098245-01] | 24.3 µM | 
COc1cc(OC)cc(C(=O)Oc2c(CN3CCOCC3)cc(Cl)c3cccnc23)c1 [MLS000770997-01] | 12.2 µM | 
O=C(Nc1ccc(Cl)cc1)c1nc2c(o1)CCN(Cc1cccc(O)c1)CC2 [NCGC00413336-01] | 17.7 µM | 
O=C(CCCCCCC(=O)Nc1ccccc1)NO [NCGC00168085-01] | 19.3 µM | 
COc1ccc(-c2nc(CC3CCN(C(=O)c4n[nH]c(=O)c5ccccc45)C3)no2)cc1 (stereo not drawn) [NCGC00443252-01] | 19.3 µM | 
COc1ccc(CCNc2nc3c(c(=O)n(C)c(=O)n3C)n2Cc2ccc(F)cc2)cc1OC [NCGC00102121-01] | 13.7 µM | 
CC(=O)c1cccc(N[S+](=O)([O-])c2cc(-c3cnc(C4CC4)o3)ccc2C)c1 [NCGC00131168-01] | 30.6 µM | 
O=C1C=CC(Cl)=CC1=CNNC(=O)c1ccncc1 [MLS000766661-01] | 12.2 µM | 
CCC(C)NC(=O)N1CC(Oc2ccc(-c3noc(C4CCOCC4)n3)cc2)C1 (stereo not drawn) [NCGC00458059-01] |  | CC50 at 48 h (in vitro; hepg2): 12.2 µM
